# From patent publication US8686044B2, “Amide derivative, pest control agent containing the amide derivative, and use of the amide derivative” (Mitsui Chemicals Agro, Inc., priority 2008, dated 2014)
# Tests used:
# Spodoptera litura = test: Pesticidal test against Spodoptera litura (cabbage leaf dip); format: in vivo; details: foliar, 144 h, 2-stage larvae, examined after 6 days, 25° C., read-out: pesticidal rate; for pest or weed control at 10 ppm: concentration 10 ppm; for pest or weed control at 1 ppm: concentration 1 ppm
# Procedure: (§1) Pesticidal Test against Spodoptera litura A piece of a cabbage leaf was immersed for 30 seconds in a chemical solution in which a test compound had been prepared at a predetermined concentration, and air-dried, and then put into a 7 cm polyethylene cup having a filter paper laid on the bottom thereof, and 2-stage larvae of Spodoptera litura were released. They were left to stand in a thermostatic chamber at 25° C., and the numbers of the living pests and the dead pests were examined after 6 days. The test was carried out with five larvae per group in two replicates. Further, the following compound (A) disclosed in the pamphlet of International Publication WO 2005/073165 was used as a comparative compound.
# Plutella xylostella = test: Pesticidal test against Plutella xylostella (cabbage leaf dip); format: in vivo; details: foliar, 144 h, 2-stage larvae, examined after 6 days, 25° C., read-out: pesticidal rate; for pest or weed control at 10 ppm: concentration 10 ppm; for pest or weed control at 1 ppm: concentration 1 ppm
# Procedure: as §1, with “Plutella xylostella” for “Spodoptera litura”, “above” for “following”, “(A)” for “(A) disclosed in the pamphlet of International Publication WO 2005/073165”
Structure (SMILES),pest or weed control at 10 ppm (Spodoptera litura),pest or weed control at 10 ppm (Plutella xylostella),pest or weed control at 1 ppm (Spodoptera litura),pest or weed control at 1 ppm (Plutella xylostella)
O=C(Nc1c(I)cc(C(F)(C(F)(F)F)C(F)(F)F)cc1C(F)(F)F)c1cccc(NC(=O)c2ccc([N+](=O)[O-])cc2Cl)c1 [6-454],≥ 70%,≥ 70%,,
CN(C(=O)c1cccc(C#N)c1)c1cccc(C(=O)Nc2c(I)cc(C(F)(C(F)(F)F)C(F)(F)C(F)(F)F)cc2I)c1 (centres unmarked) [7-78],,,≥ 70%,≥ 70%
CN(C(=O)c1cccnc1Cl)c1nc(C(=O)Nc2c(Br)cc(C(F)(C(F)(F)F)C(F)(F)F)cc2C(F)(F)F)cs1 [27-663],,≥ 70%,≥ 70%,
CN(C(=O)c1ccccc1F)c1cccc(C(=O)Nc2c(I)cc(C(F)(C(F)(F)F)C(F)(F)F)cc2C(F)(F)F)c1 [7-425],,,≥ 70%,≥ 70%
O=C(Nc1cccc(C(=O)Nc2c(Cl)cc(C(F)(C(F)(F)F)C(F)(F)F)cc2C(F)(F)F)c1)c1ccccc1 [6-111],,,≥ 70%,≥ 70%
N#Cc1ccc(C(=O)Nc2c(Cl)cc(C(F)(C(F)(F)F)C(F)(F)F)cc2C(F)(F)F)cc1NC(=O)c1ccc(Cl)nc1 [1-513],,,≥ 70%,≥ 70%
O=C(Nc1cccc(C(=O)Nc2c(I)cc(C(F)(C(F)(F)F)C(F)(F)C(F)(F)F)cc2C(F)(F)F)c1)c1ccccc1 (centres unmarked) [6-502],,,≥ 70%,≥ 70%
CN(C(=O)c1ccc(C#N)cc1F)c1cccc(C(=O)Nc2c(Br)cc(C(F)(C(F)(F)F)C(F)(F)F)cc2C(F)(F)F)c1 [7-300],,,≥ 70%,≥ 70%
N#Cc1ccc(C(=O)Nc2cccc(C(=O)Nc3c(Br)cc(C(F)(C(F)(F)F)C(F)(F)C(F)(F)F)cc3Br)c2)cc1 (centres unmarked) [6-46],,,≥ 70%,≥ 70%
CN(C(=O)c1ccccc1)c1cccc(C(=O)Nc2c(Br)cc(C(F)(F)C(F)(F)F)cc2C(F)(F)F)c1 [7-5911],≥ 70%,≥ 70%,,
N#Cc1cccc(C(=O)Nc2cccc(C(=O)Nc3c(I)cc(C(F)(C(F)(F)F)C(F)(F)C(F)(F)F)cc3I)c2)c1 (centres unmarked) [6-78],,,≥ 70%,≥ 70%
CN(C(=O)c1ccc(Cl)nc1)c1cccc(C(=O)Nc2c(I)cc(C(F)(C(F)(F)F)C(F)(F)C(F)(F)F)cc2I)c1 (centres unmarked) [7-93],,,≥ 70%,≥ 70%
CN(C(=O)c1ccccc1)c1cccc(C(=O)Nc2c(Br)cc(C(F)(C(F)(F)F)C(F)(F)C(F)(F)F)cc2Br)c1 (centres unmarked) [7-38],,,≥ 70%,≥ 70%
CN(C(=O)c1ccc(C#N)nc1)c1cc(C(=O)Nc2c(Cl)cc(C(F)(C(F)(F)F)C(F)(F)F)cc2C(F)(F)F)ccc1C#N [2-518],≥ 70%,≥ 70%,,
CN(C(=O)c1ccccc1F)c1cccc(C(=O)Nc2c(I)cc(C(F)(C(F)(F)F)C(F)(F)C(F)(F)F)cc2I)c1 (centres unmarked) [7-72],,,≥ 70%,≥ 70%
CN(C(=O)c1cccc(F)c1)c1cccc(C(=O)Nc2c(Br)cc(C(F)(C(F)(F)F)C(F)(F)F)cc2C(F)(F)F)c1 [7-270],,≥ 70%,≥ 70%,
O=C(Nc1cccc(C(=O)Nc2c(Cl)cc(C(F)(C(F)(F)F)C(F)(F)F)cc2Br)c1F)c1ccccc1 [6-5902],,,≥ 70%,
N#Cc1cccc(C(=O)Nc2cccc(C(=O)Nc3c(Br)cc(C(F)(C(F)(F)F)C(F)(F)F)cc3C(F)(F)F)c2)c1 [6-288],,,≥ 70%,≥ 70%

Structure (SMILES),pest or weed control at 10 ppm (Spodoptera litura),pest or weed control at 10 ppm (Plutella xylostella),pest or weed control at 1 ppm (Spodoptera litura),pest or weed control at 1 ppm (Plutella xylostella)
CN(C(=O)c1c(F)cccc1F)c1cccc(C(=O)Nc2c(I)cc(C(F)(C(F)(F)F)C(F)(F)C(F)(F)F)cc2I)c1 (centres unmarked) [7-80],,,≥ 70%,≥ 70%
COC(=O)c1cc(C#N)cc(C(=O)N(C)c2cccc(C(=O)Nc3c(Br)cc(C(F)(C(F)(F)F)C(F)(F)F)cc3C(F)(F)F)c2F)c1 [7-5910],,,≥ 70%,≥ 70%
CN(C(=O)c1cccc(NC(=O)c2cccc(C#N)c2)c1)c1c(Br)cc(C(F)(C(F)(F)F)C(F)(F)F)cc1C(F)(F)F [8-288],,,≥ 70%,≥ 70%
CN(C(=O)c1ccccc1)c1cccc(C(=O)Nc2c(I)cc(C(F)(C(F)(F)F)C(F)(F)C(F)(F)F)cc2I)c1 (centres unmarked) [7-71],,,≥ 70%,≥ 70%
O=C(Nc1cccc(C(=O)Nc2c(I)cc(C(F)(C(F)(F)F)C(F)(F)F)cc2C(F)(F)F)c1F)c1ccc(F)cc1Cl [6-1755],,,≥ 70%,≥ 70%
N#Cc1cccc(C(=O)Nc2cccc(C(=O)Nc3c(C(F)(F)F)cc(C(F)(C(F)(F)F)C(F)(F)F)cc3C(F)(F)F)c2)c1 [6-824],,,≥ 70%,≥ 70%
CN(C(=O)c1ccc(C#N)cc1)c1cccc(C(=O)Nc2c(Br)cc(C(F)(C(F)(F)F)C(F)(F)C(F)(F)F)cc2Br)c1 (centres unmarked) [7-46],,,≥ 70%,≥ 70%
O=C(Nc1cccc(C(=O)Nc2c(Br)cc(C(F)(C(F)(F)F)C(F)(F)C(F)(F)F)cc2Br)c1)c1ccccc1 (centres unmarked) [6-38],,,≥ 70%,≥ 70%
"O=C(Nc1cccc(C(=O)Nc2c(Br)cc(C(F)(F)C(F)(F)F)cc2C(F)(F)F)c1)c1ccccc1 [6-5913, 3-benzamide-N-(2-bromo-4-(perfluoroethyl)-6-(trifluoromethyl)phenyl)benzamide]",≥ 70%,≥ 70%,,
O=C(Nc1cccc(C(=O)Nc2c(I)cc(C(F)(C(F)(F)F)C(F)(F)C(F)(F)F)cc2C(F)(F)F)c1)c1ccc(Cl)nc1 (centres unmarked) [6-545],,,≥ 70%,≥ 70%
CN(C(=O)c1ccc(C#N)cc1)c1cccc(C(=O)Nc2c(I)cc(C(F)(C(F)(F)F)C(F)(F)C(F)(F)F)cc2I)c1 (centres unmarked) [7-79],,,≥ 70%,≥ 70%
N#Cc1ccc(C(=O)Nc2c(Cl)cc(C(F)(C(F)(F)F)C(F)(F)F)cc2C(F)(F)F)cc1NC(=O)c1ccccc1 [1-470],,≥ 70%,≥ 70%,
CN(C(=O)c1ccc(Cl)nc1)c1cc(C(=O)Nc2c(Cl)cc(C(F)(C(F)(F)F)C(F)(F)F)cc2C(F)(F)F)ccc1C#N [2-513],≥ 70%,,,≥ 70%
O=C(Nc1cccc(C(=O)Nc2c(I)cc(C(F)(C(F)(F)F)C(F)(F)C(F)(F)F)cc2I)c1)c1ccc(Cl)nc1 (centres unmarked) [6-93],,≥ 70%,≥ 70%,
CN(C(=O)c1ccc(S(C)(=O)=O)cc1)c1cccc(C(=O)Nc2c(Br)cc(C(F)(C(F)(F)F)C(F)(F)F)cc2C(F)(F)F)c1 [7-5908],≥ 70%,≥ 70%,,
N#Cc1ccc(C(=O)Nc2cccc(C(=O)Nc3c(Br)cc(C(F)(C(F)(F)F)C(F)(F)F)cc3C(F)(F)F)c2)c(F)c1 [6-300],,,≥ 70%,≥ 70%
CN(C(=O)c1ccc(F)cc1)c1cccc(C(=O)Nc2c(Br)cc(C(F)(C(F)(F)F)C(F)(F)F)cc2C(F)(F)F)c1 [7-271],,,≥ 70%,≥ 70%
CN(C(=O)c1ccc(C#N)cc1)c1cccc(C(=O)Nc2c(Cl)cc(C(F)(C(F)(F)F)C(F)(F)F)cc2C(F)(F)F)c1 [7-132],,,≥ 70%,≥ 70%
